Patent publication US9079901B2, “Fused heterocyclic compounds as ion channel modulators” (Gilead Sciences, Inc., priority 2010, dated 2015)

Molecular target: wild-type human cardiac sodium channel, hNav1.5 (late sodium current) in HEK293 cells (Homo sapiens, UniProt Q14524)
Experiment: Late INa screening assay (automated whole-cell patch clamp, PatchXpress)
Assay type: cell-based
Conditions: late INa generated with 10 μM Tefluthrin (or 50 nM ATX II), HEK293 hNav1.5; for inhibition at 1 µM: HEK293, compound at 1 μM, read-out: Late INa 1 μM (percent block of late INa)
Procedure, shortened: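 Percent block was derived from mean current 225–250 ms into a 250 ms depolarisation to −20 mV (holding −120 mV, every 10 s), normalised to the current left in Na-free solution. Whole-cell recordings came from HEK293 cells stably expressing α-subunit-only hNav1.5, at 24–27 °C. Late current was enhanced with 10 μM tefluthrin or 50 nM ATX II, then compound (typically 10 μM) was added three times over 7–8 min.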

Chain of wild-type human cardiac sodium channel, hNav1.5 (late sodium current) in HEK293 cells (Q14524 whole entry): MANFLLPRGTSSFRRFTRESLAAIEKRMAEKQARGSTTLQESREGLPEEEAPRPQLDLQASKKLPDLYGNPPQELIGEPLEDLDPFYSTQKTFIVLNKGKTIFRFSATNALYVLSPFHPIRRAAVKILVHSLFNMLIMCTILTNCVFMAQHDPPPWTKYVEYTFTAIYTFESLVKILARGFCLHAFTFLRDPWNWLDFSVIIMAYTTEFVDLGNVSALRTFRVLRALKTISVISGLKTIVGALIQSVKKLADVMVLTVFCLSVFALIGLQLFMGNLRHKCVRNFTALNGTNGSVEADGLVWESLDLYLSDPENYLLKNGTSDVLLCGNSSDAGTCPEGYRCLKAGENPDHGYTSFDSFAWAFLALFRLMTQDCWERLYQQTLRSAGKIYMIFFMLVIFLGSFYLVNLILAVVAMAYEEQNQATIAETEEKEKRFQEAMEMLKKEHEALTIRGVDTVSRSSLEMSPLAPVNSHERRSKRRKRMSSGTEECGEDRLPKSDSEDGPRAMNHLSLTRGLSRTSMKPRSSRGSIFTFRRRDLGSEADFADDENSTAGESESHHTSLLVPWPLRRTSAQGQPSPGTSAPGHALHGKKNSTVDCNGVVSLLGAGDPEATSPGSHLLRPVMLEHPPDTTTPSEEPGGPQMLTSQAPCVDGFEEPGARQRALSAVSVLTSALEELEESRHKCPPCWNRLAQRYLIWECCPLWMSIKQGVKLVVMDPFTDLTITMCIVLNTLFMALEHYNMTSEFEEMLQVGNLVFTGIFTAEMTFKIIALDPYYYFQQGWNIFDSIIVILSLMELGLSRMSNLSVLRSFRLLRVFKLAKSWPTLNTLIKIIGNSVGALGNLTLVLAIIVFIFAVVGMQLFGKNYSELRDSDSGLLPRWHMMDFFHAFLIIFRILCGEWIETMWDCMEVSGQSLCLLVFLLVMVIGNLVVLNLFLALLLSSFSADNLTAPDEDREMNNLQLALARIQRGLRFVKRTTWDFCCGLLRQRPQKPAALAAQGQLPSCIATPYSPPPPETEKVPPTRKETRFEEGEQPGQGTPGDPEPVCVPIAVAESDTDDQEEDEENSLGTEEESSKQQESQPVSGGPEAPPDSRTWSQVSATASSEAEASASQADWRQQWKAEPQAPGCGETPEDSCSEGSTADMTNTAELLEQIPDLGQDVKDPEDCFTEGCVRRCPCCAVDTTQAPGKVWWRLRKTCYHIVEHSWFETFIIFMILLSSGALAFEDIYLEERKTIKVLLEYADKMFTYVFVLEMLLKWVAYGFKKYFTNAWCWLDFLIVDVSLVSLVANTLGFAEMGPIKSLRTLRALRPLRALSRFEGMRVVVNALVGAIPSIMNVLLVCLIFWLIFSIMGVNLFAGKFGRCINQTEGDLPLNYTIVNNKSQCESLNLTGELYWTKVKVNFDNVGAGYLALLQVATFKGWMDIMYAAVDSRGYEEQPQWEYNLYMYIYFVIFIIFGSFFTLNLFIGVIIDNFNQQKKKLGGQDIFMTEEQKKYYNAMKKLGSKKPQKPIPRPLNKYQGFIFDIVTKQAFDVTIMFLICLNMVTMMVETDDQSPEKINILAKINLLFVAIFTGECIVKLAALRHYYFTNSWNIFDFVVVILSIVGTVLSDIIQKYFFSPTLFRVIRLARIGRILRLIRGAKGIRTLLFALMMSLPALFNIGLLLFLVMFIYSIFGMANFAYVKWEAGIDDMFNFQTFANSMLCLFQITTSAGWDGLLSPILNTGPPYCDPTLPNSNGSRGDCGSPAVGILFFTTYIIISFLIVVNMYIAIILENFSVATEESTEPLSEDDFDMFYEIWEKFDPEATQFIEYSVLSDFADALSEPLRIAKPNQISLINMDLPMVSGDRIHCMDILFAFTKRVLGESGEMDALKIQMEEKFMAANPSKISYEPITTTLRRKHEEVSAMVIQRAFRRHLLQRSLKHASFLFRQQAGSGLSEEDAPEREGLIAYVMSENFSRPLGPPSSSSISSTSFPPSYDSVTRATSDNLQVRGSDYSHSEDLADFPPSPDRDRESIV

SMILES	inhibition at 1 µM [%]	Late INa 1 μM (percent block of late INa) (compound at 1 μM) [%]
O=c1[nH]nc2ccc(-c3ccc(Oc4ccc(F)cc4)cc3)cn12 [compound 143, 6-(4-(4-fluorophenoxy)phenyl)-[1,2,4]triazolo[4,3-a]pyridin-3(2H)-one]	56.6	
Cc1nc(Cn2nc3ccc(-c4ccc(C(F)(F)F)cc4)cn3c2=O)no1 [compound 148, 2-((5-methyl-1,2,4-oxadiazol-3-yl)methyl)-6-(4-(trifluoromethyl)phenyl)-[1,2,4]triazolo[4,3-a]pyridin-3(2H)-one]	11.6	
Cc1cccnc1-c1cc(Cn2nc3ccc(-c4ccc(OC(F)(F)F)cc4)cn3c2=O)no1 [compound 145, 2-((5-(3-methylpyridin-2-yl)isoxazol-3-yl)methyl)-6-(4-(trifluoromethoxy)phenyl)-[1,2,4]triazolo[4,3-a]pyridin-3(2H)-one]	37.7	
O=c1n(CC(COc2ccccc2Cl)Oc2ncccn2)nc2ccc(-c3ccc(OC(F)(F)F)cc3)cn12 (stereo not drawn) [compound 89, 2-(3-(2-chlorophenoxy)-2-(pyrimidin-2-yloxy)propyl)-6-(4-(trifluoromethoxy)phenyl)-[1,2,4]triazolo[4,3-a]pyridin-3(2H)-one]	16	
Cc1noc(Cn2nc3ccc(-c4ccc(OC(F)(F)F)c(F)c4)cn3c2=O)n1 [compound 155, 6-(3-fluoro-4-(trifluoromethoxy)phenyl)-2-((3-methyl-1,2,4-oxadiazol-5-yl)methyl)-[1,2,4]triazolo[4,3-a]pyridin-3(2H)-one]	18.8	
COc1cc(F)ccc1OCC(O)Cn1nc2ccc(-c3ccc(OC(F)(F)F)cc3)cn2c1=O (stereo not drawn) [compound 98, 2-(3-(4-fluoro-2-methoxyphenoxy)-2-hydroxypropyl)-6-(4-(trifluoromethoxy)phenyl)-[1,2,4]triazolo[4,3-a]pyridin-3(2H)-one]	23.2	
Cc1noc(Cn2nc3ccc(-c4ccc(C(=O)c5ccccc5)cc4)cn3c2=O)n1 [compound 131, 6-(4-benzoylphenyl)-2-((3-methyl-1,2,4-oxadiazol-5-yl)methyl)-[1,2,4]triazolo[4,3-a]pyridin-3(2H)-one]	34.7	
O=c1n(Cc2ccc3ccccc3n2)nc2ccc(-c3ccc(OC(F)(F)F)cc3)cn12 [compound 13, 2-(quinolin-2-ylmethyl)-6-(4-(trifluoromethoxy)phenyl)-[1,2,4]triazolo[4,3-a]pyridin-3(2H)-one]	24.6	
O=c1n(CCOc2nccn3ccnc23)nc2ccc(-c3ccc(OC(F)(F)F)cc3)cn12 [compound 174, 2-(2-(imidazo[1,2-a]pyrazin-8-yloxy)ethyl)-6-(4-(trifluoromethoxy)phenyl)-[1,2,4]triazolo[4,3-a]pyridin-3(2H)-one]	26.3	
O=c1n(CCOc2ccccc2Cl)nc2ccc(-c3ccc(OC(F)(F)F)cc3)cn12 [compound 46, 2-(2-(2-chlorophenoxy)ethyl)-6-(4-(trifluoromethoxy)phenyl)-[1,2,4]triazolo[4,3-a]pyridin-3(2H)-one]	43.2	
O=c1n(Cc2noc(COc3ccccn3)n2)nc2ccc(-c3ccc(OC(F)(F)F)cc3)cn12 [compound 175, 2-((5-((pyridin-2-yloxy)methyl)-1,2,4-oxadiazol-3-yl)methyl)-6-(4-(trifluoromethoxy)phenyl)-[1,2,4]triazolo[4,3-a]pyridin-3(2H)-one]	28.9	
COC[C@H](Cn1nc2ccc(-c3ccc(OC(F)(F)F)cc3)cn2c1=O)Oc1ncccc1C(F)(F)F [compound 91, (S)-2-(3-methoxy-2-(3-(trifluoromethyl)pyridin-2-yloxy)propyl)-6-(4-(trifluoromethoxy)phenyl)-[1,2,4]triazolo[4,3-a]pyridin-3(2H)-one]	58.3	
O=c1n(CCOc2ncccn2)nc2ccc(-c3ccc(Oc4ccc(F)cc4)cc3)cn12 [compound 122, 6-(4-(4-fluorophenoxy)phenyl)-2-(2-(pyrimidin-2-yloxy)ethyl)-[1,2,4]triazolo[4,3-a]pyridin-3(2H)-one]	58.5	
O=c1n(Cc2nc(-c3c(Cl)cccc3Cl)no2)nc2ccc(-c3ccc(OC(F)(F)F)cc3)cn12 [compound 9, 2-((3-(2,6-dichlorophenyl)-1,2,4-oxadiazol-5-yl)methyl)-6-(4-(trifluoromethoxy)phenyl)-[1,2,4]triazolo[4,3-a]pyridin-3(2H)-one]	29.8	
O=c1n(CCOc2cccc(Cl)c2)nc2ccc(-c3ccc(OC(F)(F)F)cc3)cn12 [compound 54, 2-(2-(3-chlorophenoxy)ethyl)-6-(4-(trifluoromethoxy)phenyl)-[1,2,4]triazolo[4,3-a]pyridin-3(2H)-one]	20.2	
O=c1n(CCCOc2ccccc2C(F)(F)F)nc2ccc(-c3ccc(OC(F)(F)F)cc3)cn12 [compound 71, 6-(4-(trifluoromethoxy)phenyl)-2-(3-(2-(trifluoromethyl)phenoxy)propyl)-[1,2,4]triazolo[4,3-a]pyridin-3(2H)-one]		26.0692
Cc1noc(Cn2nc3ccc(-c4ccc(F)c(F)c4)cn3c2=O)n1 [compound 150, 6-(3,4-difluorophenyl)-2-((3-methyl-1,2,4-oxadiazol-5-yl)methyl)-[1,2,4]triazolo[4,3-a]pyridin-3(2H)-one]	12.8	
COc1cc(Cl)c(Cl)cc1OCC(O)Cn1nc2ccc(-c3ccc(C(F)(F)F)cc3)cn2c1=O (stereo not drawn) [compound 198, 2-(3-(4,5-dichloro-2-methoxyphenoxy)-2-hydroxypropyl)-6-(4-(trifluoromethyl)phenyl)-[1,2,4]triazolo[4,3-a]pyridin-3(2H)-one]	14.8	
O=c1n(CCCc2ccc(F)cc2)nc2ccc(-c3ccc(OC(F)(F)F)cc3)cn12 [compound 76, 2-(3-(4-fluorophenyl)propyl)-6-(4-(trifluoromethoxy)phenyl)-[1,2,4]triazolo[4,3-a]pyridin-3(2H)-one]	19	
O=c1n(CCOc2ncc(Cl)cn2)nc2ccc(-c3ccc(OC(F)(F)F)cc3)cn12 [compound 92, 2-(2-(5-chloropyrimidin-2-yloxy)ethyl)-6-(4-(trifluoromethoxy)phenyl)-[1,2,4]triazolo[4,3-a]pyridin-3(2H)-one]	35.3	
CC(C)Oc1ccccc1OCC(O)Cn1nc2ccc(-c3ccc(OC(F)(F)F)cc3)cn2c1=O (stereo not drawn) [compound 108, 2-(2-hydroxy-3-(2-isopropoxyphenoxy)propyl)-6-(4-(trifluoromethoxy)phenyl)-[1,2,4]triazolo[4,3-a]pyridin-3(2H)-one]	41.5	
Cc1ccc(OCCn2nc3ccc(-c4ccc(OC(F)(F)F)cc4)cn3c2=O)cc1 [compound 75, 2-(2-(p-tolyloxy)ethyl)-6-(4-(trifluoromethoxy)phenyl)-[1,2,4]triazolo[4,3-a]pyridin-3(2H)-one]	25.7	
Cc1noc(Cn2nc3ccc(-c4ccc([Si](C)(C)C)cc4)cn3c2=O)n1 [compound 110, 2-((3-methyl-1,2,4-oxadiazol-5-yl)methyl)-6-(4-(trimethylsilyl)phenyl)-[1,2,4]triazolo[4,3-a]pyridin-3(2H)-one]	44.3	
O=c1n(Cc2noc(COc3ncccn3)n2)nc2ccc(-c3ccc(OC(F)(F)F)cc3)cn12 [compound 162, 2-((5-((pyrimidin-2-yloxy)methyl)-1,2,4-oxadiazol-3-yl)methyl)-6-(4-(trifluoromethoxy)phenyl)-[1,2,4]triazolo[4,3-a]pyridin-3(2H)-one]	18.5	
